This experiment addresses T1, Purine nucleoside phosphorylase (Homo sapiens, UniProt P00491).
T1 sequence (P00491 whole entry): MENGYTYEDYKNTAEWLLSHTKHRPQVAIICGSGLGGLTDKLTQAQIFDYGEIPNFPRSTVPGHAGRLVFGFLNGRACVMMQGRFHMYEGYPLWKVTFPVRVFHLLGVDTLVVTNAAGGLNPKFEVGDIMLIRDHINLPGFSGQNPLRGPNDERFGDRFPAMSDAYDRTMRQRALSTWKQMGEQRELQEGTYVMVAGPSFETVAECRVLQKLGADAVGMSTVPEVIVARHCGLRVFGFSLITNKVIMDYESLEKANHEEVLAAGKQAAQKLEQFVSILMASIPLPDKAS
The experiment in a line: In vitro inhibition of purine nucleoside phosphorylase isolated from human erythrocytes.
Turning to `Nc1nc2c(cnn2COCCCCCCP(=O)(O)O)c(=O)[nH]1`, the Ki stood at 630 nM.

Consider `Nc1nc2c(cnn2CCCCCCC(F)(F)P(=O)(O)O)c(=O)[nH]1`, for which the affinity corresponds to a Ki of 49 nM. Against the preceding compound, the Ki is about 13-fold lower.

`Nc1nc2c(cnn2COCCCCCP(=O)(O)O)c(=O)[nH]1` yielded a Ki of 230 nM.

For `Nc1nc2c(ncn2CCCCCCC(F)(F)P(=O)(O)O)c(=O)[nH]1`, the Ki was 57 nM.

`Nc1nc(O)c2ncn(CCCCCCCP(=O)(O)O)c2n1`: the Ki was 530 nM.

`Nc1nc(O)c2nnn(COCCCCCCP(=O)(O)O)c2n1` had an inhibition constant Ki of 190 nM.

With `Nc1nc(O)c2nnn(CCCCCCP(=O)(O)O)c2n1`, the Ki came to 360 nM. Compared with the last compound, the Ki is about 1.9-fold higher.

Turning to `Nc1nc(O)c2ncn(COCCCCP(=O)(O)O)c2n1`, the Ki amounted to 56 nM.

With `Nc1nc2c(ncn2COCCCCCCP(=O)(O)O)c(=O)[nH]1`, the Ki came out at 220 nM.

In the case of `Nc1nc2c(ncn2CCCCCCCCCCP(=O)(O)O)c(=O)[nH]1`, the Ki is 1600 nM.

`Nc1nc2c(nnn2COCCCCCP(=O)(O)O)c(=O)[nH]1` yielded a Ki of 96 nM. Against the preceding compound, the Ki is about 17-fold lower.

Take `Nc1nc(O)c2ncn(CCCCCCCCP(=O)(O)O)c2n1`: the inhibition constant Ki turned out to be 390 nM.

Compound `Nc1nc2c(nnn2COCCCCP(=O)(O)O)c(=O)[nH]1` returned a Ki of 48 nM.

The compound `Nc1nc(O)c2nn(COCCCCCP(=O)(O)O)nc2n1` yielded a Ki of 550 nM.

As to `Nc1nc(O)c2nnn(CCCCCP(=O)(O)O)c2n1`, the affinity, expressed as Ki, was 65 nM.

As to `Nc1nc2c(cnn2CCCCCCCP(=O)(O)O)c(=O)[nH]1`, the Ki is 580 nM.

The compound `Nc1nc2c(ncn2COCCCCOP(=O)(O)O)c(=O)[nH]1` gave a Ki of 51 nM.

For `Nc1nc(O)c2nnn(CCCCP(=O)(O)O)c2n1`, the affinity corresponds to a Ki of 7300 nM.

`Nc1nc2c(cnn2CCCCCCCCP(=O)(O)O)c(=O)[nH]1`: the Ki came to 1100 nM. This Ki lies about 6.6-fold lower than the previous one.

`Nc1nc2c(ncn2COCCCCCP(=O)(O)O)c(=O)[nH]1` came in with a Ki of 160 nM. This Ki is about 6.9-fold lower than that of the compound before.

The term Ki denotes a dissociation constant, usually derived from enzyme kinetics or from competition with a known ligand. Lower therefore signals a stronger hold on the target.

The values are drawn from ChEMBL document CHEMBL1129497, “Guanine, pyrazolo[3,4-d]pyrimidine, and triazolo[4,5-d]pyrimidine (8-azaguanine) phosphonate acyclic derivatives as inhibitors of purine nucleoside phosphorylase” (J Med Chem, 1996).
